From patent publication US8962856B2, “Modulators of cystic fibrosis transmembrane conductance regulator” (Vertex Pharmaceuticals Incorporated, priority 2005, dated 2015) come the findings set out here.

As a reminder, the EC50 is the midpoint of the concentration-response curve. By Emax is commonly meant the greatest response seen or fitted, relative to the assay's reference.

This assay addresses T1, ΔF508-CFTR (Homo sapiens, UniProt P13569, DEL508-508).
T1 construct: expressed in transfected cells
Description: Membrane potential optical assay for ΔF508-CFTR correction. Format: cell-based. Conditions: for % Efficacy / Emax: relative efficacy. The source says: Assays for Detecting and Measuring ΔF508-CFTR Correction Properties of Compounds
I) Membrane Potential Optical Methods for Assaying ΔF508-CFTR Modulation Properties of Compounds
The optical membrane potential assay utilized voltage-sensitive FRET sensors described by Gonzalez and Tsien (See Gonzalez, J. E. and R. Y. Tsien (1995) “Voltage sensing by fluorescence resonance energy transfer in single cells” Biophys J 69(4): 1272-80, and Gonzalez, J. E. and R. Y. Tsien (1997) “Improved indicators of cell membrane potential that use fluorescence resonance energy transfer” Chem Biol 4(4): 269-77) in combination with instrumentation for measuring fluorescence changes such as the Voltage/Ion Probe Reader (VIPR) (See, Gonzalez, J. E., K. Oades, et al. (1999) “Cell-based assays and instrumentation for screening ion-channel targets” Drug Discov Today 4(9): 431-439).
These voltage sensitive assays are based on the change in fluorescence resonant energy transfer (FRET) between the membrane-soluble, voltage-sensitive dye, DiSBAC2(3), and a fluorescent phospholipid, CC2-DMPE, which is attached to the outer leaflet of the plasma membrane and acts as a FRET donor. Changes in membrane potential (Vm) cause the negatively charged DiSBAC2(3) to redistribute across the plasma membrane and the amount of energy transfer from CC2-DMPE changes accordingly. The changes in fluorescence emission were monitored using VIPR™ II, which is an integrated liquid handler and fluorescent detector designed to conduct cell-based screens in 96- or 384-well microtiter plates.
NIH3T3 mouse fibroblasts stably expressing ΔF508-CFTR are used for optical measurements of membrane potential. The cells are maintained at 37° C. in 5% CO2 and 90% humidity in Dulbecco's modified Eagle's medium supplemented with 2 mM glutamine, 10% fetal bovine serum, 1×NEAA, β-ME, 1× pen/strep, and 25 mM HEPES in 175 cm^2 culture flasks. For all optical assays, the cells were seeded at 30,000/well in 384-well matrigel-coated plates and cultured for 2 hrs at 37° C. before culturing at 27° C. for 24 hrs. for the potentiator assay. For the correction assays, the cells are cultured at 27° C. or 37° C. with and without compounds for 16-24 hoursB) Electrophysiological Assays for assaying ΔF508-CFTR modulation properties of compounds

T1 sequence (P13569 with tags, fused parts or gaps DEL508-508): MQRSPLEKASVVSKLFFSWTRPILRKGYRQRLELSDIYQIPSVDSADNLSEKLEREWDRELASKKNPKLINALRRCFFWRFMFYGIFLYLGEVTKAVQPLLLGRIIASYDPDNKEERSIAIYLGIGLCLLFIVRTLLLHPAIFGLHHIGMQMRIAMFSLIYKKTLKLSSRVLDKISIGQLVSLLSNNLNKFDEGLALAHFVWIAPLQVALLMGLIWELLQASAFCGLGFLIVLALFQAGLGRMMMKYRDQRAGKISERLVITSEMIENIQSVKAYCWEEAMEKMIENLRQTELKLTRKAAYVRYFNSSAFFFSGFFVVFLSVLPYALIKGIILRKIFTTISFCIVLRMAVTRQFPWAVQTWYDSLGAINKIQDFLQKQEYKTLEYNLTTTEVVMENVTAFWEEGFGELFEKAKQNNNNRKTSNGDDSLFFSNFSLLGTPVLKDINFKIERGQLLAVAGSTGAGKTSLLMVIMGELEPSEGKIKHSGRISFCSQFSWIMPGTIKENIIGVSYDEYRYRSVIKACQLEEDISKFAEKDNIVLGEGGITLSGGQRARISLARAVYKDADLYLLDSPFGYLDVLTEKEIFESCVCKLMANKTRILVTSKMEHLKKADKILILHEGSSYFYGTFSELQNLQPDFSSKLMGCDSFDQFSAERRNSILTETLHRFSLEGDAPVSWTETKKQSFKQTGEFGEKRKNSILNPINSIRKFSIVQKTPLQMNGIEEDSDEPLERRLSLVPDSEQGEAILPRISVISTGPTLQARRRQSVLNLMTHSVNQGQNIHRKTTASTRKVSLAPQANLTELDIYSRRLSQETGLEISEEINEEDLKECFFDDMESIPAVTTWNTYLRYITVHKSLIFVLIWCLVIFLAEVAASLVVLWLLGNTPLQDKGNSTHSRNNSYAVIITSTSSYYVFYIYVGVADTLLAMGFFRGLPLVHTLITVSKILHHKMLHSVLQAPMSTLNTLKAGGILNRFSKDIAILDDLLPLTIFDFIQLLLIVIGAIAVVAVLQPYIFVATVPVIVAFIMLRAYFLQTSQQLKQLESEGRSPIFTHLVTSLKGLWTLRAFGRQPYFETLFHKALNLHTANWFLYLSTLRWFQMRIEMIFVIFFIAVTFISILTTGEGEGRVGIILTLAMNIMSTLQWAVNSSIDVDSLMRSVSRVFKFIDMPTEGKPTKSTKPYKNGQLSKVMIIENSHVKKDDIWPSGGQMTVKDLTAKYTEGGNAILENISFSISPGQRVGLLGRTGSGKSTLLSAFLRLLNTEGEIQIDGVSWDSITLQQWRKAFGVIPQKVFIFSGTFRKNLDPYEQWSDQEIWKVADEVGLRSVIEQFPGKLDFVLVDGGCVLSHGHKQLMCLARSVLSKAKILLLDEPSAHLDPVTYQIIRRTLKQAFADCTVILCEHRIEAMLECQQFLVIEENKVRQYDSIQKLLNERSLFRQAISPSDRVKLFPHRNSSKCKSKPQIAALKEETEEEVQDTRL

As for “1-(Benzo[d][1,3]dioxol-6-yl)-N-(5-((R)-(2-chlorophenyl)((R)-3-hydroxypyrrolidin-1-yl)methyl)thiazol-2-yl)cyclopropanecarboxamide [Compound 2]”, the EC50 lay within 2 to 20 µM and the “% Efficacy” value is listed as “+++ (“+++” means >100%)”.

As for “1-(Benzo[d][1,3]dioxol-6-yl)-N-(5-((S)-(2-chlorophenyl)((R)-3-hydroxypyrrolidin-1-yl)methyl)thiazol-2-yl)cyclopropanecarboxamide [Compound 1]”, the EC50 was less than 2 µM and the “% Efficacy” value is “+++ (“+++” means >100%)”.

Turning to `O=C(Nc1ncc([C@H](c2ccc(Cl)cc2F)N2CC[C@@H](O)C2)s1)C1(c2ccc3c(c2)OCO3)CC1` [Compound 3], the EC50 is less than 2 µM and the Emax was more than 100%.

On to `O=C(Nc1ncc([C@H](c2ccc(Cl)cc2F)N2CC[C@@H](O)C2)s1)C1(c2ccc3c(c2)OC(F)(F)O3)CC1` [Compound 4], for which the EC50 was less than 2 µM and the Emax was more than 100%.

As for `O=C(Nc1ncc([C@H](c2ccc(Cl)c(Cl)c2)N2CC[C@@H](O)C2)s1)C1(c2ccc3c(c2)OCO3)CC1` [Compound 5], the EC50 was less than 2 µM and the Emax is more than 100%.

On to `O=C(Nc1ncc([C@@H](c2ccc(Cl)c(Cl)c2)N2CC[C@@H](O)C2)s1)C1(c2ccc3c(c2)OCO3)CC1` [Compound 6], for which the EC50 is less than 2 µM and the Emax is more than 100%.

Consider `Cc1nc(NC(=O)C2(c3ccc4c(c3)OCO4)CC2)sc1[C@@H](c1ccccc1Cl)N1CC[C@H](O)C1` [Compound 7], for which the EC50 is less than 2 µM and the Emax was more than 100%.

Regarding `Cc1nc(NC(=O)C2(c3ccc4c(c3)OCO4)CC2)sc1[C@H](c1ccccc1Cl)N1CC[C@H](O)C1` [Compound 8], the 50% effective concentration (EC50) was less than 2 µM and the Emax was more than 100%.

`Cc1nc(NC(=O)C2(c3ccc4c(c3)OC(F)(F)O4)CC2)sc1[C@@H](c1ccccc1Cl)N1CC[C@H](O)C1` [Compound 9]: the EC50 is less than 2 µM and the Emax was more than 100%.

Consider `Cc1nc(NC(=O)C2(c3ccc4c(c3)OC(F)(F)O4)CC2)sc1[C@H](c1ccccc1Cl)N1CC[C@H](O)C1` [Compound 10], for which the EC50 is less than 2 µM and the Emax is more than 100%.

For `O=C(Nc1ncc(C(c2ccccc2Cl)N2CC[C@@H](O)C2)s1)C1(c2ccc3c(c2)OC(F)(F)O3)CC1` (some centres unmarked) [Compound 11], the Emax is more than 100%.

Regarding `O=C(Nc1ncc([C@H](c2ccccc2Cl)N2CC[C@@H](O)C2)s1)C1(c2ccc3c(c2)OC(F)(F)O3)CC1` [Compound 11], the EC50 is less than 2 µM.

For `O=C(Nc1ncc([C@H](c2ccccc2Cl)N2CC[C@@H](O)C2)s1)C1(c2ccc3c(c2)OCO3)CC1` [Compound 12], the EC50 was less than 2 µM and the Emax lay within 25 to 100%.

`O=C(Nc1ncc([C@@H](c2ccccc2Cl)N2CC[C@@H](O)C2)s1)C1(c2ccc3c(c2)OCO3)CC1` [Compound 13]: the EC50 is less than 2 µM and the Emax was more than 100%.
